Tests used:
[1] = tested on: snake venom phosphodiesterase (SVPD); conditions: 1 mg SVPD overnight at 37° C.; then 100 μM on DC2.4 cells; FIG. 8
[2] = tested on: SIV gag-specific CD8+ and CD4+ T cell responses; assay: SIV gag-specific CD8 and CD4 T cell responses by IFNγ ELISpot after vaccination with SIV gag protein plus CDN; type: in vivo, C57BL/6 mice; conditions: 1 ug CDN with 10 ug SIV gag protein in 2% squalene-in-water, s.c. twice 20 days apart, spleens six days after second vaccination; FIG. 10
Description: To further assess the immunogenicity of Rp, Rp dithio c-di-GMP relative to unmodified c-di-GMP molecules, SIV gag-specific CD8+ and CD4+ T cell responses were measured. Five C57BL/6 mice per group were immunized subcutaneously twice with either 1 ug Rp, Rp dithio c-di-GMP or saline control formulated in 2% squalene-in-water with 10 ug SIV gag protein. Vaccinations were separated by 20 days, and spleens were harvested six days after the second vaccination. Immune responses were measured to SIV gag-specific CD8 (AL11, SIV gag312-322, A) and CD4 (DD13, SIV gag300-312, B) T cell epitopes by IFNγ ELISpot assay. Plates were scanned and spot forming cells (SFC) per well were enumerated using an ImmunoSpot analyzer (CTL).

[3] = tested on: THP1-Blue human monocytes; assay: IFN-β induction in THP1-Blue human monocytes (IRF-inducible SEAP reporter); type: cell-based; conditions: FIG. 15
Description: To determine the relative potency of the prodrug form of c-di-GMP to activate the innate immune response, relative levels of IFN-β induced in a human monocyte cell line were assessed. […] Cell culture supernatants from each sample were collected after 4 hours. 10 μL of the cell culture supernatants was added to QUANTI-Blue reagent (Invivogen) and incubated for 15-30 minutes. Absorbance at 655 nm was measured using a Model 680 spectrophotometer (BioRad).

[4] = tested on: OVA-specific CD4+ and CD8+ T cell responses; assay: OVA-specific CD4+ and CD8+ T cell responses in PBMC by IFN-γ ELISpot after vaccination with OVA/Addavax plus CDN; type: in vivo, C57BL/6 mice; conditions: once s.c., PBMC 10 days post vaccination, FIG. 9
Description: To test the enhanced in vivo immunogenicity of Rp, Rp dithio c-di-GMP relative to unmodified c-di-GMP molecules, OVA-specific CD4+ and CD8+ T cell responses were measured in PBMCs at 10 days post vaccination in conjunction with CDN treatment. Vaccines were prepared by combining 10 μg of OVA protein (EndoFit OVA, InVivogen) and Addavax (2% squalene final) with either 25 μg or 5 μg of cyclic dinucleotide, in a total volume of 100 μL. Groups of five female C57BL/6 mice (H-2b) were immunized once subcutaneously (s.c) in the base of the tail with the vaccine preparations, and the OVA-specific CD4+ and CD8+ T cell responses in the peripheral blood mononuclear cell (PBMC) compartment were determined by ELISpot analysis 10 days later. 1×10^5 PBMCs and 1×10^5 splenocyte feeder cells isolated from aged-matched naïve C57BL/6 mice were un-stimulated or stimulated with 1 μM of MHC class II peptide (OVA265-280 TEWTSSNVMEERKIKV) or MHC class I (OVA257-264 SIINFEKL) peptide overnight and IFN-γ spot forming cells were measured, as described previously.

DC2.4 cells = assay: IFN-β induction by CDNs in DC2.4 antigen presenting cells (L929-ISRE luciferase reporter readout); type: cell-based, mouse; conditions: for relative level of IFN-β induced: DC2.4 cells incubated with 5, 20 and 100 μM CDN for 30 minutes, culture fluids after 4 hours, RLU in L929-ISRE reporter cells, FIG. 7; for level of IFN-β expression compared to c-di-GMP or c-di-AMP: cyclic dinucleotides not incubated with SVPD, 100 μM, DC2.4 cells, FIG. 8
Description: To measure the level of induced IFN-β, cell culture fluids from each sample were collected after 4 hours, and 10 μL was added to 5×10^4 L929-ISRE luciferase reporter cells cultured in RPMI media+10% FBS.

[5] = tested on: OVA-expressing wild-type Listeria monocytogenes (WT Lm-OVA); assay: Protective immunity against lethal WT Lm-OVA challenge (spleen CFU); type: in vivo, C57BL/6 mice; conditions: i.v. 2×LD50 (1×10^5 CFU) WT Lm-OVA at 27 days post boost; spleens 3 days later; FIG. 11C
Description: To establish the enhanced immunogenicity and accompanying protective immunity induced by Rp, Rp dithio c-di-GMP relative to unmodified c-di-GMP, OVA-specific CD8 T cell responses measured in PBMC and protective immunity assessed against lethal bacterial challenge. Vaccines were prepared by combining 10 μg of OVA protein (EndoFit OVA, InVivogen) and Addavax (2% squalene final) with 25 μg of cyclic dinucleotide, in a total volume of 100 μL. Groups of five female C57BL/6 mice (H-2^b) were immunized twice subcutaneously (s.c) in the base of the tail with the vaccine preparations. The interval between the prime and boost immunizations was 36 days. The magnitude of both the memory and expansion phases of the OVA257-specific CD8 T cell responses in PBMC were quantified by intracellular cytokine staining (ICS) analysis at both 27 days post-boost vaccination and at 3 days post challenge with a 2× lethal dose (LD)50 dose (1×10^5 colony forming units; CFU) of OVA-expressing wild-type Listeria monocytogenes (WT Lm-OVA). For ICS analysis, 1×10^5 PBMCs from test mice combined with 1×10^5 splenocyte feeder cells isolated from aged-matched naïve C57BL/6 mice were un-stimulated or stimulated with 1 μM of MHC class I peptide (OVA257-264 SIINFEKL) for 5 hrs. in the presence of Brefeldin A, and IFN-γ production was measured by flow cytometry on a BD FACSVerse. […]

[6] = tested on: OVA257-specific CD8 T cell responses; assay: OVA-specific CD8 T cell memory and expansion in PBMC by intracellular cytokine staining after prime-boost vaccination; type: in vivo, C57BL/6 mice
Description: To establish the enhanced immunogenicity and accompanying protective immunity induced by Rp, Rp dithio c-di-GMP relative to unmodified c-di-GMP, OVA-specific CD8 T cell responses measured in PBMC and protective immunity assessed against lethal bacterial challenge. Vaccines were prepared by combining 10 μg of OVA protein (EndoFit OVA, InVivogen) and Addavax (2% squalene final) with 25 μg of cyclic dinucleotide, in a total volume of 100 μL. Groups of five female C57BL/6 mice (H-2^b) were immunized twice subcutaneously (s.c) in the base of the tail with the vaccine preparations. The interval between the prime and boost immunizations was 36 days. The magnitude of both the memory and expansion phases of the OVA257-specific CD8 T cell responses in PBMC were quantified by intracellular cytokine staining (ICS) analysis at both 27 days post-boost vaccination and at 3 days post challenge with a 2× lethal dose (LD)50 dose (1×10^5 colony forming units; CFU) of OVA-expressing wild-type Listeria monocytogenes (WT Lm-OVA). For ICS analysis, 1×10^5 PBMCs from test mice combined with 1×10^5 splenocyte feeder cells isolated from aged-matched naïve C57BL/6 mice were un-stimulated or stimulated with 1 μM of MHC class I peptide (OVA257-264 SIINFEKL) for 5 hrs. in the presence of Brefeldin A, and IFN-γ production was measured by flow cytometry on a BD FACSVerse.

TRAMP-C2 tumor cells = assay: Anti-tumor efficacy of CDNs formulated with GVAX in a subcutaneous murine prostate cancer model; type: in vivo, C57BL/6 mice; conditions: by day 52 post tumor implantation; s.c. vaccination on days 4 and 11; FIG. 12
Description: The relative in vivo anti-tumor efficacy of the Rp, Rp dithio c-di-AMP and unmodified c-di-AMP derivatives were evaluated in a subcutaneous mouse model of prostate cancer. The derivative molecules were formulated with 1×10^6 irradiated whole TRAMP-C2 murine prostate tumor cells expressing GM-CSF (GVAX). Groups of 5 male C57BL/6 mice were implanted with 1×10^5 TRAMP-C2 tumor cells subcutaneous in the footpad. On days 4 and 11 post tumor implantation, mice were administered vaccinations subcutaneous in the flank of either GVAX alone, or GVAX formulated with RR-CDA or CDA, and compared to HBSS control. Tumor growth was monitored by calipers, and tumor volume was calculated.

[7] = tested on: OVA-specific CD8+ T cell responses; assay: OVA-specific CD8 T cell responses in splenocytes by intracellular cytokine staining after vaccination with CDN prodrug; type: in vivo, C57BL/6 mice; conditions: 5 μg CDN prodrug with 10 μg OVA and Addavax, s.c. twice, splenocytes 7 days post second vaccination; FIG. 16
Description: To assess the ability of the mono-2′-O-myristoyl c-di-GMP (“mono-2′-O-myristoyl CDG”) derivative to induce in vivo immune responses, OVA-specific CD8 T cell responses were measured in splenocytes at 7 days post second vaccination in conjunction with CDN treatment. To test the ability of mono-2′-O-myristoyl c-di-GMP relative to stimulate an OVA-specific immune responses, vaccines were prepared by combining 10 μg of OVA protein (EndoFit OVA, Invivogen) and Addavax (2% squalene final) with either 0 (Control) or 5 μg of mono-2′-O-myristoyl c-di-GMP derivative (“mono-2′-O-myristoyl CDG”), in a total volume of 100 μL. Groups of five female C57BL/6 mice (H-2b) were immunized twice subcutaneously (s.c) in the base of the tail with the vaccine preparations, and the OVA-specific CD8+ T cell responses in the spleens were determined by intracellular cytokine staining 7 days later. 1×10^6 splenocytes were unstimulated or stimulated with 1 μM of MHC class I (OVA257-264 SIINFEKL; SL8) peptide overnight and IFN-γ production was measured by flow cytometer on a BD FACSVerse.

Nc1nc2c(ncn2[C@@H]2O[C@@H]3COP(=O)(O)O[C@H]4[C@@H](O)[C@H](n5cnc6c(=O)[nH]c(N)nc65)O[C@@H]4COP(=O)(O)O[C@H]3[C@H]2O)c(=O)[nH]1 [c-di-GMP, reference compound]
level of IFN-β expression after incubation of the CDN with SVPD versus without SVPD [1]: significantly lower

Nc1nc2c(ncn2[C@@H]2O[C@@H]3CO[P@@](=O)(S)O[C@H]4[C@@H](O)[C@H](n5cnc6c(=O)[nH]c(N)nc65)O[C@@H]4CO[P@@](=O)(S)O[C@H]3[C@H]2O)c(=O)[nH]1 [Rp, Rp dithio c-di-GMP, dithio [Rp,Rp] c-di-GMP]
level of IFN-β expression after incubation of the CDN with SVPD versus without SVPD [1]: equivalent | SIV gag-specific CD8 and CD4 T cell responses compared to saline control [2]: significantly higher | IFN-β induction compared to Rp, Sp dithio c-di-GMP and unmodified c-di-GMP ([3]; human monocyte cell line): superior induction | magnitude of antigen-specific CD8+ T cell responses compared to 5 μg or 25 μg of unmodified c-di-GMP ([4]; 5 μg CDN): greater | CD4+ and CD8+ OVA-specific T cell responses compared to unmodified c-di-GMP ([4]; same amount of CDN adjuvant (25 μg or 5 μg)): of greater magnitude | relative level of IFN-β induced (DC2.4 cells): induced significantly higher levels of IFN-β than either the c-di-GMP or c-di-AMP unmodified cyclic dinucleotide molecules | level of IFN-β expression compared to c-di-GMP or c-di-AMP (DC2.4 cells): greater | protection against virulent pathogen challenge (spleen colonies) [5]: complete protection (below the limit of detection, LOD) | OVA-specific CD8 T cell memory compared to unmodified c-di-GMP adjuvanted vaccines ([6]; 25 μg CDN, s.c. prime and boost 36 days apart, PBMC 27 days post-boost, FIG. 11A): higher magnitude of OVA-specific CD8 T cell memory | expansion of OVA-specific memory CD8 T cells following challenge, compared to unmodified c-di-GMP adjuvanted vaccines ([6]; 3 days post challenge with 2× LD50 WT Lm-OVA, FIG. 11A): expanded to a higher magnitude | magnitude of OVA-specific CD8 T cell memory ([6]; FACS plot, FIG. 11B, 25 μg CDN adjuvanted vaccine): ~30 % of the total CD8 T cell population in PBMC

Nc1ncnc2c1ncn2C1OC2COP(=O)(S)OC3C(COP(=O)(S)OC2C1O)OC(n1cnc2c(N)ncnc21)C3O (stereo not drawn) [Rp, Sp dithio c-di-AMP, dithio [Rp,Sp] c-di-AMP]
relative level of IFN-β induced (DC2.4 cells): lower than the level induced by both the Rp, Rp dithio c-di-GMP and the Rp, Rp dithio c-di-AMP diastereomers as well as the native c-di-GMP and c-di-AMP molecules

Nc1ncnc2c1ncn2C1OC2COP(=O)(S)OC3C(COP(=O)(S)OC2C1O)OC(n1cnc2c(N)ncnc21)C3O (stereo not drawn) [Rp, Rp dithio c-di-AMP, dithio [Rp,Rp] c-di-AMP]
anti-tumor efficacy compared to GVAX alone or GVAX formulated with unmodified c-di-AMP (TRAMP-C2 tumor cells): increased anti-tumor potency | level of IFN-β expression after incubation of the CDN with SVPD versus without SVPD [1]: equivalent | relative level of IFN-β induced (DC2.4 cells): induced significantly higher levels of IFN-β than either the c-di-GMP or c-di-AMP unmodified cyclic dinucleotide molecules | level of IFN-β expression compared to c-di-GMP or c-di-AMP (DC2.4 cells): greater

CCCCCCCCCCCCCC(=O)OC1C2OP(=O)(O)OCC3OC(n4cnc5c(=O)[nH]c(N)nc54)C(O)C3OP(=O)(O)OCC2OC1n1cnc2c(=O)[nH]c(N)nc21 (stereo not drawn) [mono-2′-O-myristoyl c-di-GMP]
OVA-specific CD8 T cell immune responses compared to Control vaccines [7]: greater immune responses | levels of IFN-β induced compared to unmodified c-di-GMP and background (HBSS) ([3]; 100 μM for 30 minutes, supernatants after 4 hours, absorbance at 655 nm): significantly higher levels of IFN-β

Nc1ncnc2c1ncn2[C@@H]1O[C@@H]2COP(=O)(O)O[C@H]3[C@@H](O)[C@H](n4cnc5c(N)ncnc54)O[C@@H]3COP(=O)(O)O[C@H]2[C@H]1O [c-di-AMP, reference compound]
level of IFN-β expression after incubation of the CDN with SVPD versus without SVPD [1]: significantly lower

Nc1nc2c(ncn2[C@@H]2O[C@@H]3CO[P@@](O)(=S)O[C@H]4[C@@H](O)[C@H](n5cnc6c(=O)[nH]c(N)nc65)O[C@@H]4CO[P@](O)(=S)O[C@H]3[C@H]2O)c(=O)[nH]1 [Rp, Sp dithio c-di-GMP, dithio [Rp,Sp] c-di-GMP]
relative level of IFN-β induced (DC2.4 cells): lower than the level induced by both the Rp, Rp dithio c-di-GMP and the Rp, Rp dithio c-di-AMP diastereomers as well as the native c-di-GMP and c-di-AMP molecules
